Experiments:
[1] = molecular target: T1, dopamine decarboxylase (DDC) (Homo sapiens, UniProt P20711); test: 13CO2 breath test after 13C-labeled LD, with CD pretreatment or simultaneous CD; assay type: in vivo
T1 construct: from tissue; host or cells: peripheral tissues of living human subjects (liver, kidney, gastrointestinal tract, capillary endothelium)
T1 sequence (P20711 1-480): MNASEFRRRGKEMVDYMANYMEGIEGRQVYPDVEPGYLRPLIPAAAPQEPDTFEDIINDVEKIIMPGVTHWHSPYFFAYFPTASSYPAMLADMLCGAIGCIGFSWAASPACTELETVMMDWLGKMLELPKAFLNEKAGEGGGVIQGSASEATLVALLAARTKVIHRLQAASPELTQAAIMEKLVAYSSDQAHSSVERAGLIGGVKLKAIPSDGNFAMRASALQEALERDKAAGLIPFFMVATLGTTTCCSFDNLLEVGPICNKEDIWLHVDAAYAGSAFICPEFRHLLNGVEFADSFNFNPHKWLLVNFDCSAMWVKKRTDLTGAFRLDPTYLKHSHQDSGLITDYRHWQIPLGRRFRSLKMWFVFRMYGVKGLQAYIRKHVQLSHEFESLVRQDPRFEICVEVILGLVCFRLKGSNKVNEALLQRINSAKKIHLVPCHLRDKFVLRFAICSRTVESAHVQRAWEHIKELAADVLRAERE
Method: ^13CO2 and ^12CO2 in exhaled breath samples is measured by IR spectrometry using the UBiT-IR300 (Meretek Diagnostics, Lafayette, CO; ^13CO2 urea breath analyzer instruction manual. Lafayette, CO: Meretek Diagnostics; 2002; A1-A2)^12 The amount of ^13CO2 present in breath samples is expressed as delta over baseline (DOB) that represents a change in the ^13CO2/^12CO2 ratio of breath samples collected before and after ^13C-labeled DDC enzyme substrate ingestion, e.g., ^13C-labeled LD. [formula]
The amount of ^13C-labeled DDC substrate absorbed and released into the breath as ^13CO2 is determined for each time point using the equation described by Amarri (Amarri et al., Clin Nutr. 14:149-54 (1995)).
The PDR is calculated using the formula: [formula] where ^13δ=[RS/RPDB)−1]×10^3 Rs=^13C:^12C in the sample RPDB=^13C:^12C in PDB (international standard PeeDeeBelemnite)=0.0112372) P is the atom % excess n is the number of labeled carbon positions δt, δ+1, δ0 are enrichments at times t, t+1 and predose respectively C is the CO2 production rate (C=300 [mmol/h]*BSA BSA=w^0.5378*h^0.3963*0.024265 (Body Surface Area) w: Weight (kg) h: Height (cm) Cmax is the highest value of DOB from the breath curve following ^13C-labeled DDC substrate. In one embodiment of the method, the ^13C-labeled DDC substrate is ^13C-labeled LD.
The present studies employed the ^13CO2 breath test method of the present invention to determine the optimal dose of CD required to optimally suppress peripheral metabolism of ^13C-labeled LD in individual subjects (i.e., Vlt 1 and Vlt 2). Briefly, a pre-breath test sample was collected in normal human subjects after overnight fasting (12 h) in a 1.3 L aluminum bag (Otsuka Pharmaceutical Co., Ltd., Tokyo, Japan). Briefly, normal human subjects ingested varying dosages (e.g., 25 mg-200 mg CD) 1 h prior to administration of 100 mg ^13C-labeled LD on three successive days. Breath samples were collected at specified intervals following administration of ^13C-labeled LD to determine peripheral metabolic decarboxylation of the drug. That is, breath samples were collected at 5 minutes intervals for 40 minutes, at 10 minutes intervals to 90 minutes and 120 minutes. Metabolism of ^13C-labeled LD in the absence of CD administration served as control. The results of these studies are summarized FIGS. 5-8. There is a dose response to the inhibition of peripheral DDC enzyme activity by the inhibitor CD.
The present studies examined the effect of CD preadministration on peripheral LD metabolism in human subjects. Briefly, normal human subjects ingested varying dosages (e.g., 25 mg-200 mg CD) either simultaneously, or up to 2 h prior to administration of ^13C-labeled LD. Breath samples were collected at specified intervals following administration of ^13C-labeled LD to determine peripheral metabolic decarboxylation of the ^13C-labeled LD. Metabolism of ^13C-labeled LD in the absence of CD administration served as control. The results of these studies are summarized below in Table 1 as well as FIGS. 9-14.
In Table 1, figures in parenthesis are percent inhibition of DDC by CD. The delta over baseline of ^13CO2 is designated as DOB. The percentage of LD dose recovered as ^13CO2 is designated as PDR. The peak breath concentration of ^13CO2 is designated as Cmax.
Breath samples are collected at 5 min time points up to 40 min and at 10 min intervals to 90 min and at 120 min after ingestion of ^13C-labeled LD. The breath samples are collected by having the subject momentarily holding their breath for 3 seconds prior to exhaling into a sample collection bag. The breath samples are analyzed on a UBiT IR-300 spectrophotometer (Meretek, Denver, Colo.) to determine the ^13CO2/^12CO2 ratio in expired breath, or sent to a reference lab. Optionally, varying doses (10-400 mg) of CD are orally administered to the subject (10 min-6 h) prior to administration of the ^13C-labeleld LD.

peripheral DDC = molecular target: T2, peripheral DDC (Homo sapiens, UniProt P20711); details: CD doses used in current clinical practice; cited from earlier work
T2 construct: host or cells: human subjects in vivo (cited study)
T2 sequence (P20711 1-480): T1 sequence (P20711 1-480)

[2] = 50 mg oral CD; serum CD time course; good/rapid (N=4) and poor/slow (N=5) absorbers; cited from earlier work
[3] = subject Vlt 1, CD 25 mg 1 h prior to LD
[4] = subject Vlt 1, CD 25 mg simultaneous with LD
[5] = subject Vlt 1, CD 50 mg 1 h prior to LD
[6] = subject Vlt 1, CD 50 mg simultaneous with LD
[7] = subject Vlt 1, CD 100 mg 1 h prior to LD
[8] = subject Vlt 1, CD 100 mg simultaneous with LD
[9] = subject Vlt 2, CD 50 mg 1 h prior to LD
[10] = subject Vlt 2, CD 50 mg simultaneous with LD
[11] = subject Vlt 2, CD 100 mg 1 h prior to LD
[12] = subject Vlt 2, CD 100 mg simultaneous with LD
[13] = subject Vlt 2, CD 200 mg 1 h prior to LD
[14] = subject Vlt 2, CD 200 mg simultaneous with LD

Q: What does the source list for `C[C@@](Cc1ccc(O)c(O)c1)(NN)C(=O)O` [CD, (−)-L-a-hydrazino-a-methyl-b-(3,4-dihydroxybenzene) propanoic acid monohydrate]?
A: suppression of peripheral decarboxylation, simultaneous ingestion of CD/LD ([1]; 25 mg or 50 mg dose of CD and 100 mg of LD, simultaneous): did not completely suppress; suppression of DDC, CD administered 1 h prior to LD dose ([1]; Vlt 1 and Vlt 2): maximal suppression; inhibition of peripheral DDC enzyme activity, dependence on CD dose ([1]; Vlt 1 and Vlt 2, 25 mg-200 mg CD 1 h prior to 100 mg 13C-labeled LD): dose response; level of peripheral metabolism of 13C-labeled LD, CD 1 h prior versus 2 h prior to LD ([1]; human subject): no significant difference; inhibition of peripheral metabolism of 13C-labeled LD, CD prior (1 h or 2 h) compared to simultaneous ([1]; normal human subjects): greater; peripheral metabolism of 13C-labeled LD versus control level ([1]; normal human subjects, all concentrations of CD tested): significantly inhibited; DOB20: DOB value at 20 minutes after administration of 13C-labeled LD [1, 3]: 25.8; PDR40: PDR value at 40 minutes after administration of 13C-labeled LD [1, 3]: 12.7%; percent inhibition of DDC by CD (Cmax) [1, 3]: 54%; percent inhibition of DDC by CD (DOB20) [1, 3]: 43%; percent inhibition of DDC by CD (PDR40) [1, 3]: 57%; DOB20: DOB value at 20 minutes after administration of 13C-labeled LD [1, 4]: 35.6; PDR40: PDR value at 40 minutes after administration of 13C-labeled LD [1, 4]: 18.7%; percent inhibition of DDC by CD (Cmax) [1, 4]: 20%; percent inhibition of DDC by CD (DOB20) [1, 4]: 22%; percent inhibition of DDC by CD (PDR40) [1, 4]: 37%; DOB20: DOB value at 20 minutes after administration of 13C-labeled LD [1, 5]: 6.8; PDR40: PDR value at 40 minutes after administration of 13C-labeled LD [1, 5]: 3.6%; percent inhibition of DDC by CD (Cmax) [1, 5]: 88%; percent inhibition of DDC by CD (DOB20) [1, 5]: 85%; percent inhibition of DDC by CD (PDR40) [1, 5]: 88%; DOB20: DOB value at 20 minutes after administration of 13C-labeled LD [1, 6]: 25.5; PDR40: PDR value at 40 minutes after administration of 13C-labeled LD [1, 6]: 11.7%; percent inhibition of DDC by CD (Cmax) [1, 6]: 57%; percent inhibition of DDC by CD (PDR40) [1, 6]: 61%; DOB20: DOB value at 20 minutes after administration of 13C-labeled LD [1, 7]: 10.6; PDR40: PDR value at 40 minutes after administration of 13C-labeled LD [1, 7]: 5.3%; percent inhibition of DDC by CD (Cmax) [1, 7]: 82%; percent inhibition of DDC by CD (DOB20) [1, 7]: 77%; percent inhibition of DDC by CD (PDR40) [1, 7]: 82%; DOB20: DOB value at 20 minutes after administration of 13C-labeled LD [1, 8]: 16.5; PDR40: PDR value at 40 minutes after administration of 13C-labeled LD [1, 8]: 9.1%; percent inhibition of DDC by CD (Cmax) [1, 8]: 70%; percent inhibition of DDC by CD (DOB20) [1, 8]: 64%; percent inhibition of DDC by CD (PDR40) [1, 8]: 69%; DOB20: DOB value at 20 minutes after administration of 13C-labeled LD [1, 9]: 12.6; PDR40: PDR value at 40 minutes after administration of 13C-labeled LD [1, 9]: 8.3%; percent inhibition of DDC by CD (Cmax) [1, 9]: 48%; percent inhibition of DDC by CD (DOB20) [1, 9]: 66%; percent inhibition of DDC by CD (PDR40) [1, 9]: 56%; DOB20: DOB value at 20 minutes after administration of 13C-labeled LD [1, 10]: 15.4; PDR40: PDR value at 40 minutes after administration of 13C-labeled LD [1, 10]: 11.0%; percent inhibition of DDC by CD (Cmax) [1, 10]: 32%; percent inhibition of DDC by CD (DOB20) [1, 10]: 58%; percent inhibition of DDC by CD (PDR40) [1, 10]: 41%; DOB20: DOB value at 20 minutes after administration of 13C-labeled LD [1, 11]: 13.5; PDR40: PDR value at 40 minutes after administration of 13C-labeled LD [1, 11]: 7.8%; percent inhibition of DDC by CD (Cmax) [1, 11]: 63%; percent inhibition of DDC by CD (DOB20) [1, 11]: 63%; percent inhibition of DDC by CD (PDR40) [1, 11]: 59%; DOB20: DOB value at 20 minutes after administration of 13C-labeled LD [1, 12]: 26.7; PDR40: PDR value at 40 minutes after administration of 13C-labeled LD [1, 12]: 14.1%; percent inhibition of DDC by CD (Cmax) [1, 12]: 27%; percent inhibition of DDC by CD (DOB20) [1, 12]: 27%; percent inhibition of DDC by CD (PDR40) [1, 12]: 25%; DOB20: DOB value at 20 minutes after administration of 13C-labeled LD [1, 13]: 8.8; PDR40: PDR value at 40 minutes after administration of 13C-labeled LD [1, 13]: 5.7%; percent inhibition of DDC by CD (Cmax) [1, 13]: 75%; percent inhibition of DDC by CD (DOB20) [1, 13]: 76%; percent inhibition of DDC by CD (PDR40) [1, 13]: 70%; DOB20: DOB value at 20 minutes after administration of 13C-labeled LD [1, 14]: 20.5; PDR40: PDR value at 40 minutes after administration of 13C-labeled LD [1, 14]: 12.0%; percent inhibition of DDC by CD (Cmax) [1, 14]: 44%; percent inhibition of DDC by CD (PDR40) [1, 14]: 36%; saturation of peripheral DDC activity (peripheral DDC): not saturated; absorption of CD among human subjects [2]: variable

— US20070003481A1, “Method and composition to individualize Levodopa/Carbidopa therapy using a breath test” (priority 2005, published 2007)
